Among the test systems are MDA-MB-231 breast; SF-295 CNS; MDA-MB-435; HL-60(TB) leukemia; HOP-62 NSCLC; OVCAR-8 ovarian; TK-10 renal; SK-OV-3 ovarian; MCF7 breast; SN12C renal; A498 renal; NCI-H23 lung; MDA-N; CAKI-1 renal; HOP-92 NSCLC; SF-539 CNS; A549 NSCLC; EKVX NSCLC; NCI/ADR-RES ovarian; SW-620 colon.
Test in all cases: NCI-60 cell line screen, 48 h

Where “and” joins values, the source holds several entries; their conditions need not be identical. Equal values may be shown once.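 Dose response: 5 concentrations. Exposure: 48 h. Format: 96-well plates. Endpoint: linear interpolation; highest concentration if not reached. TGI denotes the concentration required for complete inhibition of growth.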

In the case of `CCN(CC)CCC1CCCCN1CC(=O)N1c2ccccc2NC(=O)c2ccccc21` (centres undefined), the TGI with MDA-MB-231 breast, with SF-295 CNS, in the test with MDA-MB-435, in the test on HL-60(TB) leukemia, in the test with HOP-62 NSCLC and with OVCAR-8 ovarian was greater than 100 µM each time. Besides, the TGI in the test on TK-10 renal, with SK-OV-3 ovarian, in the test with MCF7 breast, in the test on SN12C renal, in the test on A498 renal and in the test on NCI-H23 lung was greater than 100 µM each time. Also, the TGI in the test with MDA-N, in the test with CAKI-1 renal, in the test on HOP-92 NSCLC, in the test with SF-539 CNS, in the test on A549 NSCLC and in the test on EKVX NSCLC was greater than 100 µM each time.
Take `Cc1cnc(/N=c2\sc(C)cn2-c2ncc(C)s2)s1`: the TGI with MDA-MB-231 breast, in the test with NCI/ADR-RES ovarian, with SF-295 CNS, in the test with SW-620 colon, in the test with MDA-MB-435 and in the test with HL-60(TB) leukemia was greater than 100 µM throughout. Further, the TGI with HOP-62 NSCLC, in the test on OVCAR-8 ovarian, in the test with TK-10 renal, in the test on SK-OV-3 ovarian, in the test with MCF7 breast and in the test on SN12C renal was greater than 100 µM throughout. The TGI in the test with NCI-H23 lung, in the test on MDA-N, in the test on HOP-92 NSCLC, with SF-539 CNS, in the test on A549 NSCLC and in the test with EKVX NSCLC was greater than 100 µM in each case.
Take `CCN1CN(c2ccccc2)C2(CCN(CCCSc3ccc(F)cc3)CC2)C1=O`: the TGI in the test on MDA-MB-231 breast turned out to be 29 µM; in the test on NCI/ADR-RES ovarian, 28.2 µM; in the test on SF-295 CNS it was 25.7 µM; with SW-620 colon, 26.1 µM; in the test with MDA-MB-435, 27.3 µM; in the test on HL-60(TB) leukemia, 26.6 µM. For the same compound, the TGI stood at 12.6 µM in the test on HOP-62 NSCLC; 30.5 µM with OVCAR-8 ovarian; 26.3 µM in the test with TK-10 renal; 33.2 µM in the test on SK-OV-3 ovarian; 12.2 µM with MCF7 breast; 20.5 µM in the test with SN12C renal. Also, the TGI in the test on NCI-H23 lung worked out at 24.1 µM; with MDA-N it was 26.4 µM; in the test with CAKI-1 renal, 35.7 µM; in the test with SF-539 CNS it was 21.5 µM; in the test on A549 NSCLC it was 21.2 µM; in the test with EKVX NSCLC, 21.2 µM.
Consider `COC(=O)C12OC(C)(C(CC(=O)OC(C)(C)C)C1=O)C1C(=O)N(c3ccccc3)C(=O)C12` (centres undefined), for which the TGI with MDA-MB-231 breast, in the test with NCI/ADR-RES ovarian, in the test with SF-295 CNS, with SW-620 colon, in the test with MDA-MB-435 and with HOP-62 NSCLC was greater than 100 µM each time. The TGI with OVCAR-8 ovarian, in the test with TK-10 renal, in the test with SK-OV-3 ovarian, with SN12C renal, with A498 renal and in the test on NCI-H23 lung was greater than 100 µM each time. Further, the TGI with MDA-N, in the test with CAKI-1 renal, with HOP-92 NSCLC and with A549 NSCLC was greater than 100 µM throughout.
For `OCC1OC(NCCNCCNC2OC(CO)C(O)C(O)C2O)C(O)C(O)C1O` (centres undefined), the TGI in the test on MDA-MB-231 breast, in the test with NCI/ADR-RES ovarian, in the test on SF-295 CNS, with SW-620 colon, with HL-60(TB) leukemia and in the test on HOP-62 NSCLC was greater than 100 µM each time. Moreover, the TGI in the test on OVCAR-8 ovarian, in the test on TK-10 renal, in the test on SK-OV-3 ovarian, with MCF7 breast, in the test on SN12C renal and in the test with A498 renal was greater than 100 µM each time. In addition, the TGI with NCI-H23 lung is greater than 100 µM; in the test on MDA-N, greater than 100 µM; with CAKI-1 renal, 10.3 µM and > 100 µM; with HOP-92 NSCLC it was greater than 100 µM; in the test with SF-539 CNS, greater than 100 µM; with A549 NSCLC, greater than 100 µM. The compound also displayed a TGI in the test on EKVX NSCLC greater than 100 µM.
As to `c1cc(CSP234N5CCN2CCN3CCN4CC5)ccc1CSP123N4CCN1CCN2CCN3CC4`, the TGI is greater than 100 µM in the test with MDA-MB-231 breast; greater than 100 µM with NCI/ADR-RES ovarian; greater than 100 µM with SF-295 CNS; greater than 100 µM with SW-620 colon; greater than 100 µM in the test on MDA-MB-435; 79.8 µM with HL-60(TB) leukemia. For the same compound, the TGI with HOP-62 NSCLC, with OVCAR-8 ovarian, with TK-10 renal, in the test with MCF7 breast, with SN12C renal and in the test on NCI-H23 lung was greater than 100 µM throughout. The TGI in the test with MDA-N, in the test with CAKI-1 renal, in the test with HOP-92 NSCLC, in the test with SF-539 CNS, with A549 NSCLC and with EKVX NSCLC was greater than 100 µM each time.
For `CCOP1(=O)C=C(Sc2ccc([N+](=O)[O-])cc2[N+](=O)[O-])C(C)(C)O1` (centres undefined), the TGI with NCI/ADR-RES ovarian is greater than 76.5 µM; in the test on SF-295 CNS, 40.8 µM; in the test with SW-620 colon, greater than 52.2 µM; with MDA-MB-435 it was 28.5 µM; in the test with HL-60(TB) leukemia, 77.3 µM; in the test on HOP-62 NSCLC, 56.2 µM. Besides, the TGI in the test with OVCAR-8 ovarian is 35.4 µM; with TK-10 renal, 31.3 µM; in the test on SK-OV-3 ovarian, 66.2 µM; in the test on MCF7 breast it was 17.2 µM; in the test with SN12C renal it was 41 µM; with A498 renal, 44.5 µM. The TGI turned out to be 46.3 µM in the test on NCI-H23 lung; 17.6 µM in the test on MDA-N; 24.8 µM in the test with CAKI-1 renal; 25.3 µM in the test on HOP-92 NSCLC; 27.5 µM in the test with SF-539 CNS; 44.3 µM with A549 NSCLC. In the test with EKVX NSCLC, this compound yielded a TGI of 18.8 µM.
As to `CC(C)(C)[Si](C)(C)OCC1OC(n2ccc(=O)[nH]c2=O)C(O[Si](C)(C)C(C)(C)C)[C@@]12O[C@H]2C(N)=O` (some centres undefined), the TGI was 21.7 µM with MDA-MB-231 breast; 38.5 µM with NCI/ADR-RES ovarian; 17 µM in the test with SF-295 CNS; 42.5 µM with SW-620 colon; 23.1 µM with MDA-MB-435; greater than 100 µM with HL-60(TB) leukemia. The TGI was 26.8 µM with HOP-62 NSCLC; 32.5 µM in the test with OVCAR-8 ovarian; 48.3 µM in the test on TK-10 renal; 36.6 µM in the test on SK-OV-3 ovarian; 18.7 µM with MCF7 breast; 30.3 µM in the test with SN12C renal. Moreover, the TGI in the test on NCI-H23 lung is 28.7 µM; in the test with MDA-N, 24.1 µM; with CAKI-1 renal, 28.2 µM; in the test on SF-539 CNS, 13.4 µM; with A549 NSCLC it was 25.9 µM; in the test on EKVX NSCLC, 34.4 µM.

Values taken from PubChem BioAssay (NCI).
